Here are results for three compounds from EP0315782A2, “Method for the production of proteins” (priority 1987, dated 1989).

Assay [1] concerns CHO-Zellen. Nature of the assay: t-PA production in transformed CHO cells, medium with 7.5% FKS, supernatant, direct chromogenic assay (DCA). It is filed as cell-based, chinesische Hamster. The following applies: for activation at 1 µM: read-out: % Steigerung der t-PA-Synthese. From the text: (§1) Der Vektor für die t-PA-Produktion wurde in einem Subklon, CHO-K1-DUX B11, integriert (Urlaub et al., Proceedings of the National Academy of Science, USA, 77: 4216-4220, 1980). Diese Zell-Linie, eine Dihydrofolat Reduktase negative Mutante (DHFR-), ist für eine DHFR-abhängige Selektion der transfizierten Zellklone geeignet. Der Vektor für die humane c-DNA kann ein bekannter Plasmid-Vektor pBR-322 oder deren Abkömmling von Escherichia coli sein. Die Promotorregion für das in Frage kommende Gen und für das DHFR-Gen stammt aus SV 40 und die Terminationsregion für beide Gene von einem Hepatitis B-Oberflächenantigen. In den Beispielen wurden CHO-K1-DUX B11-Zellen, die durch die Plasmide pETPER oder pEPEFR transformiert sind, verwendet (siehe EP-A 0117059).
(§2) Die Zellkulturen werden bei 37°C in einem Hereaus-Brutschrank inkubiert und mit einem Kohlendioxid-Luftgemisch von 7,5% CO₂ in einer relativen Luftfeuchtigkeit von 100% belüftet. Je nach Verfahrensansatz werden unterschiedliche Kulturgefäße benutzt: Spinnergefäße für 100-1000 ml Medium, Roux-Schalen (Nunc) 175 cm² (70-100 ml Medium), 75 cm² (30-50 ml Medium), 25 cm² (7-10 ml Medium) und Mehrfachkulturschalen von Costar mit 2 cm² für 1 ml Kulturen. Für die Stammhaltung werden die Zellen in einer Dichte von 0,2-0,3 x 10⁶ Zellen/ml eingesetzt und alle 2-3 Tage subkloniert.
(§3) Die Protein-Produktion stimulierenden Substanzen können zu den verschiedenen Zeitpunkten jeweils in einer 1:100 Verdünnung zugegeben werden, d.h. sie wurden zuerst in Medium gelöst oder, wenn sie schwerlöslich sind, erst in Äthylalkohol gelöst und danach in Medium zugesetzt und dann das diese Substanz enthaltende Medium dem zellenthaltenden Medium im Verhältnis 1:100 v/v zugegeben.
(§4) In den folgenden Beispielen wurden, um die Stimulierung der t-PA-Synthese hervorzurufen, Zellen einer exponentiell wachsenden Kultur entnommen und in Plastikröhrchen (Falcon) 10 Min. bei 1000 x g in einer Beckmann T 3-6 Zentrifuge abzentrifugiert. Nach Dekantieren des Überstandes wurde das Zellpellet mit frischem Medium resuspendiert.
(§5) Für die Produktion von t-PA in serumhaltigem Medium wurde als frisches Medium F12/DMEM + 7,5% FKS + Gentamycin verwendet. Die resultierende Suspension kann in 2 cm² 24 Wells-Platten bei einer Zelldichte von 0,2-0,3 x 10⁶ Zellen/ml angesetzt werden.
(§6) Aliquots von Zellüberständen und Zellextrakten wurden zu verschiedenen Zeitpunkten abgenommen bzw. hergestellt. Die Messung der Proben erfolgte entweder sofort oder nach Aufbewahrung bei -20°C mit folgenden Methoden:
Von dem synthetischen Peptidsubstrat S-2288 (D-H-Ile-Pro-Arg-p-Nitroanilin) der Firma Kabi Diagnostica wird durch das t-PA p-Nitroanilin als Reaktionsprodukt gebildet. Die Aktivität von t-PA ist zur Bildung von p-Nitroanilin proportional, die bei […], 37°C, gemessen wird.
Die spektrophotometrische Bestimmung der Enzymkinetik wurde mit einem ACP-5010-Analysengerät der Firma Eppendorf automatisch durchgeführt.
Die Aktivität des Enzyms wurde anhand dieses vorgegebenen Standards berechnet. Eine t-PA-Standardreihe von 1-15 µg/ml wurde mit einem Laborstandard hergestellt, der zu 72% aus 1-kettigem Material besteht.
Die Substratlösung (100 mM Tris/106 mM NaCl) wurde in einer Konzentration von 50 mM eingesetzt.

Assay [2] relates to CHO-Zellen. Nature of the assay: t-PA production in transformed CHO cells, serum-free medium (DCA or determination method not given). It is filed as cell-based, chinesische Hamster. Particulars: serum-free medium (Abb. 18).
From the text: Diese Zell-Linie, eine Dihydrofolat Reduktase negative Mutante (DHFR-), ist für eine DHFR-abhängige Selektion der transfizierten Zellklone geeignet. […] Die Promotorregion für das in Frage kommende Gen und für das DHFR-Gen stammt aus SV 40 und die Terminationsregion für beide Gene von einem Hepatitis B-Oberflächenantigen.
Im folgenden Beispiel wird ein nachseziertes DMEM/Ham's F 12 Medium (1:1) (Gibco) als serumfreies Medium verwendet. Als Zusatz wird fötales Kälberserum (FKS) in einer Konzentration von 7,5% oder 1-2% verwendet.
as §2, §3, §4
(§7) Für die Produktion von t-PA in serumfreiem Medium wurden die Zellen zuvor 3-4 Tage in einem Medium von 1-2% FKS adaptiert, wieder abzentrifugiert und das Zellpellet in serumfreiem Medium resuspendiert und anschließend in 2 cm² 24 Wells-Platten in einer Zelldichte von 0,4-0,5 x 10⁶ Zellen/ml überführt.
as §6
Die Aktivität des Enzyms wurde anhand dieses vorgegebenen Standards berechnet.

For assay [3], the system named is CHO-Zellen. Nature of the assay: t-PA production in transformed CHO cells, serum-free medium, ELISA. It is filed as cell-based, chinesische Hamster. Particulars: CHO, Elisa, 1 ml supernatant vs control (0%), read-out: % Steigerung der t-PA-Synthese.
From the text: as §1
Als serumfreies Medium stehen verschiedene bekannte Produkte zur Verfügung (siehe z.B. BMFT-Statusseminar 12, 13. November 1985, Bundesministerium für Forschung und Technologie, 5300 Bonn 2, Seite 111-120). Im folgenden Beispiel wird ein nachseziertes DMEM/Ham's F 12 Medium (1:1) (Gibco) als serumfreies Medium verwendet. Als Zusatz wird fötales Kälberserum (FKS) in einer Konzentration von 7,5% oder 1-2% verwendet.
as §2, §3
In den folgenden Beispielen wurden, um die Stimulierung der t-PA-Synthese hervorzurufen, Zellen einer exponentiell wachsenden Kultur entnommen und in Plastikröhrchen (Falcon) 10 Min. bei 1000 x g in einer Beckmann T 3-6 Zentrifuge abzentrifugiert. Nach Dekantieren des Überstandes wurde das Zellpellet mit frischem Medium resuspendiert. […]
Mit Hilfe eines ELISA (Enzyme-linked-immuno-sorbent-assay) wurden die t-PA-Proben des Überstandes und des Zellextraktes quantitativ bestimmt. […]

In assay [4] the test system is CHO-Zellen. Nature of the assay: Cell growth / cell division of transformed CHO cells. It is filed as cell-based, chinesische Hamster. As for the experimental part:
as §2, §5, §7

For assay [5], the system named is CHO-Zellen. Nature of the assay: t-PA production in transformed CHO cells, medium and determination method not stated. It is filed as cell-based, chinesische Hamster.
From the text: as §1, §2, §3, §4
Aliquots von Zellüberständen und Zellextrakten wurden zu verschiedenen Zeitpunkten abgenommen bzw. hergestellt. Die Messung der Proben erfolgte entweder sofort oder nach Aufbewahrung bei -20°C mit folgenden Methoden: […]

Assay [6] has as its system Bowes-Melanoma-Zellen. Particulars: Kooistra et al.; cited from earlier work.
The subject of assay [7] is CHO-Zellen. Nature of the assay: Extracellular protein content and [3H]-leucine incorporation in CHO cells, serum-free medium. It is filed as cell-based, chinesische Hamster.

The structures appear in SMILES notation.

On to `C[C@@]1(CO)[C@H](O)CC[C@@]2(C)[C@H]1CC[C@H]1C[C@@H]3C[C@@]12CC[C@]3(O)CO` [Aphidicolin], for which the activation at 1 µM in assay [1] (CHO, 24 h) amounted to 40.2%; in assay [1] (CHO, 48 h), 59.9%; in assay [1] (CHO, 72 h), 32.8%; in assay [1] (CHO, 96 h), 14.7%; in assay [3] (Table 13, 1 µM, 144 h after medium change), 51.3%; in assay [3] (Tables 13/14, 1 µM, 96 h after medium change), 36.7%. Besides, the activation at 1 µM in assay [3] (Tables 13/14, 1 µM, 120 h after medium change) worked out at 42%. Besides, in assay [2], the “Maximum des Effekts nach Mediumwechsel” value was 48 h. Moreover, in assay [4] (CHO, 1 µM, after 24 h treatment, read-out: Hemmung des Zellwachstums), the inhibition at 1 µM lay within 5 to 10%. For the same compound, the t-PA-Ausbeute gesteigert in assay [5] (after 24 h, continued incubation with the substance) is 44,9 ± 13,9%. Further, the “intrazelluläre t-PA-Konzentration erhöht” value in assay [5] (during the 24 h incubation with the substance) is recorded as “ca. 30%”.
In the case of `CCCC(=O)Nc1ncnc2c1ncn2[C@@H]1O[C@@H]2COP(=O)(O)O[C@H]2[C@H]1OC(=O)CCC` [Dibutyryl c-AMP], in assay [6], the “Einfluß auf die Synthese von t-PA” value is on record as “keinen Einfluß”.
Consider `CCC(=O)O` [Propionsäure], for which the minimal effective concentration in assay [1] (CHO, read-out: für die t-PA-Stimulierung notwendige Konzentrationen) fell in the range of 5000 to 10000 µM. The “% Steigerung der t-PA-Synthese Durchschnitt” value in assay [1] (Table 3, mean ± SE, n = 3-24, production runs of 3 to 4 days, acids added day 0 to 3, 1 ml supernatant vs control (0%), 7,5% FKS) is 28,0 ± 2,5%. For the same compound, the “% Steigerung der t-PA-Synthese Maximum” value in assay [1] (Table 3, single sample, 1 ml supernatant vs control (0%), 7,5% FKS, its concentration, addition and sampling day in brackets in Tables 3/3A) is listed as 45,5%. In assay [1] (Table 3, stimulation of t-PA synthesis, medium with 7,5% FKS, bracketed value = concentration of the single (maximum) sample), the “optimaler Dosisbereich” value is on record as 5-10 mM (10 mM). In addition, the “Steigerung der t-PA-Produktion” value in assay [1] (Table 4, Applikationstag 0, after 48 h growth, 7,5% FKS, 1 mM or 5 mM, 1 ml supernatant vs control (0%), mean ± SE) was 28,7 ± 9,3%; in assay [1] (Table 4, Applikationstag 1, after 48 h growth, 7,5% FKS, 1 mM or 5 mM, 1 ml supernatant vs control (0%), mean ± SE), 24,4 ± 4,1%; in assay [1] (day 4, medium with 7,5% FKS (Abb. 7)), 31,8%. In addition, the “prozentuale Steigerung niedriger als Buttersäure” value in assay [1] (difference to Buttersäure) was “ca. 14%”. Further, the “Hemmung des Zellwachstums” value in assay [4] (compared with Buttersäure) is on record as “in geringerem Maße”. Moreover, in assay [7], the “Einbau von [³H]-Leucin” value was “nur geringfügig gesteigert”. Moreover, the “extrazellulärer Proteingehalt gegenüber der Kontrolle” value in assay [7] is recorded as “nur gering erhöht”.
